Structures can show the parent of a compound that is named as a salt.
Legend:
[1] = tested on: human non-small cell lung A549
[2] = tested on: axolotl (Ambystoma mexicanum) embryo tail regeneration
[3] = cancer cell line cytotoxicity assay; details: human, A549 cells (non-small cell lung cancer cell line)
Hsp90α = Hsp90α (Homo sapiens, UniProt P07900); assay: standard Hsp90α inhibition; assay type: binding
[4] = second generation clinical analogue; cited from earlier work
[5] = second generation clinical analogue; cited from earlier work; remark: listed apart in the source

17-O-demethyl-reblastatin
IC50 [1]: > 50000 nM

COC1=C2C[C@@H](C)C[C@H](OC)[C@H](O)[C@@H](C)/C=C(\C)[C@H](OC(N)=O)[C@@H](OC)/C=C\C=C(/C)C(=O)NC(=CC1=O)C2=O [Gdm, Geldanamycin]
dose-response: observation at the highest dose ([2]; 10 μM, axolotl embryos): developmental abnormalities and toxicity
axolotls dead at day 7 ([2]; axolotl (Ambystoma mexicanum), in vivo, 7 day): 3
IC50 [3]: 1 nM

COc1c(O)cc2cc1C[C@@H](C)C[C@H](OC)[C@H](O)[C@@H](C)/C=C(\C)[C@H](OC(N)=O)[C@@H](OC)CC/C=C(\C)C(=O)N2 [reblastatin]
IC50 (Hsp90α): 5 to 30 nM
IC50 [3]: 700 nM

C=CCNc1c(O)cc2c(O)c1C[C@@H](C)C[C@H](OC)[C@H](O)[C@@H](C)/C=C(\C)[C@H](OC(N)=O)[C@@H](OC)/C=C\C=C(/C)C(=O)N2 [retaspimycin hydrochloride/IPI-504, retaspimycin hydrochloride]
hepatotoxicity relative to first generation analogues [4]: reduced hepatotoxicity
solubility relative to first generation analogues [5]: improved solubility

Reference: paper PMC5339036 (Angewandte Chemie (International ed. in English), 2017)
